Source: publication PMC11714206, “Massively Parallel Screening of Toll/Interleukin‐1 Receptor (TIR)‐Derived Peptides Reveals Multiple Toll‐Like Receptors (TLRs)‐Targeting Immunomodulatory Peptides” (Advanced Science, 2024)
Values joined by “and” are separate entries in the source; they are usually repeats but may differ in a detail not shown here. Identical values can stand only once. Values belong to the sequence of their own block, whether it stands above or below them.

Target: T1, MAL^TIR (Homo sapiens, UniProt P58753)
T1 construct: MAL (residues 79–221); 6xHis; made in house; host or cells: E. coli BL21 (DE3)
Test: T‐Surf phage library (P8 and P3) selection against MAL^TIR, four rounds, NGS read counts
Type: binding
Conditions: for P3_MAL Rank (after) / P3_MAL Rank (before): P3 library; for Population: 4th round of selection against MAL TIR, share of NGS reads; for P8_MAL Rank (after) / P8_MAL Rank (before): P8 library
How it was run: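 Library of 190 946 TIR‐derived peptides on P8 or P3 was panned on immobilized TIR domain coated at 5 µg mL^−1, BSA‐blocked, 1 h binding at RT, PBS/0.5% Tween‐20 washes, HCl elution, TG1 amplification. Fourth‐round pools were PCR‐barcoded, sequenced (100 bp paired‐end, Phred ≥30), and peptides ranked by read counts.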

[1] = P8_MAL: rank by count after grouping
[2] = P8_MAL: rank by count before grouping
[3] = selection against MAL TIR, rank by count after grouping
[4] = selection against MAL TIR, rank by count before grouping
[5] = selection against MAL, rank by count after grouping
[6] = selection against MAL, rank by count before grouping
[7] = P3_MAL pool: P3 T-Surf phage library
[8] = P3_MAL: rank by count after grouping
[9] = P3_MAL: rank by count before grouping
[10] = 4R selection against MAL, rank after grouping
[11] = 4R selection against MAL, rank before grouping
[12] = P8_MAL pool: P8 T-Surf phage library
[13] = selection against MAL, rank after grouping
[14] = selection against MAL, rank before grouping

T1 sequence (P58753 79-221): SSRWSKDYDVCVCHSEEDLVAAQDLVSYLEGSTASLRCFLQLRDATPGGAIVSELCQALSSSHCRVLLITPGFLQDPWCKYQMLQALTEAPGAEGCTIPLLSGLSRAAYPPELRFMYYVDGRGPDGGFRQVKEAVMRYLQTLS

Sequence: CFLFTVRSAIYAMNPA
Rank (after) [1]: 445 | Rank (before) [2]: 1109

Sequence: YAFTSHLSRYLVQRGV
P3_MAL Rank (after) [3]: 223 | P3_MAL Rank (before) [4]: 1476

Sequence: WFFPETGKIFEARKTI
P3_MAL Rank (after) [5]: 709 | P3_MAL Rank (before) [6]: 1219

Sequence: KERLHQWKLALTQAANLSGW
Population [7]: 0.00376% | Rank (after) [8]: 111 | Rank (before) [9]: 178

Sequence: AFFLAQLKSVLGNPTT
P8_MAL Rank (after) [10]: 670 | P8_MAL Rank (before) [11]: 1579

Sequence: NNLFNELVSKNIRTFT
P3_MAL Rank (after) [5]: 735 | P3_MAL Rank (before) [6]: 3480

Sequence: PNLRTKVLNYLMRNKT
Population [7]: 0.00526%

Sequence: TFLGQTYNAQAPAEIP
P8_MAL Rank (after) [10]: 644 | P8_MAL Rank (before) [11]: 2613

Sequence: RNNFIGHQYQALYRSR
P8_MAL Rank (after) [3]: 235 | P8_MAL Rank (before) [4]: 2291

Sequence: RLLKWWDSLTQASNI
P3_MAL Rank (after) [5]: 727 | P3_MAL Rank (before) [6]: 2485

Sequence: TFLGHLYNMLIQAGIH
Rank (after) [1]: 393 | Rank (before) [2]: 2595

Sequence: NQWRNALTAAAHLSGL
Rank (after) [8]: 157 | Rank (before) [9]: 3362

Sequence: AFLYNFLLNLTHKPTF
P8_MAL Rank (after) [10]: 671 | P8_MAL Rank (before) [11]: 1891

Sequence: RGFLSHLRHYLQAKAH
P3_MAL Rank (after) [13]: 552 | P3_MAL Rank (before) [14]: 2430

Sequence: ESILDQLRRRSQSIAN
P3_MAL Rank (after) [10]: 591 | P3_MAL Rank (before) [11]: 2042

Sequence: SLLYDYLRCLGIRAIL
Rank (after) [1]: 475 | Rank (before) [2]: 2493

Sequence: ARLPAICIVIWCSVAX
Population [7]: 0.00376%

Sequence: KWFWDTLTYAPNLSPH
P3_MAL Rank (after) [10]: 672 | P3_MAL Rank (before) [11]: 3487

Sequence: SSFREDLWRLRERSKQ
P3_MAL Rank (after) [13]: 491 | P3_MAL Rank (before) [14]: 3187

Sequence: VRHTFAGYLYDALHRNRI
Rank (after) [8]: 404 | Rank (before) [9]: 1703

Sequence: AFQYTFLFNLTHPTNF
Rank (after) [1]: 125 | Rank (before) [2]: 1920

Sequence: EFVLTFVINLTPRTSF
P8_MAL Rank (after) [13]: 576 | P8_MAL Rank (before) [14]: 2041

Sequence: TLLDHLCNELVQAGIH
P8_MAL Rank (after) [5]: 721 | P8_MAL Rank (before) [6]: 2639

Sequence: KLIQGGCLYRLLKIEQ
Rank (after) [1]: 421 | Rank (before) [2]: 2752

Sequence: YAFTGHLPRYLVQRGG
Rank (after) [8]: 425 | Rank (before) [9]: 1373

Sequence: WFYEPLVSQITRDTKV
P8_MAL Rank (after) [10]: 586 | P8_MAL Rank (before) [11]: 1294

Sequence: NQWRNSLTAAANLSCW
P3_MAL Rank (after) [3]: 204 | P3_MAL Rank (before) [4]: 3341

Sequence: NQRRNAVTAAAKLSGC
Rank (after) [8]: 469 | Rank (before) [9]: 3476

Sequence: AFFWAKLKRVLGNPTL
P8_MAL Rank (after) [13]: 525 | P8_MAL Rank (before) [14]: 1652

Sequence: YTALTNIGFHTFLDND
P3_MAL Rank (after) [3]: 195 | P3_MAL Rank (before) [4]: 1542

Sequence: YFLHLLLFSRPETVYI
P8_MAL Rank (after) [10]: 615 | P8_MAL Rank (before) [11]: 1508

Sequence: SSFREGLWRLLELRQK
P3_MAL Rank (after) [3]: 276 | P3_MAL Rank (before) [4]: 3147

Sequence: PFLGHLSNALVQAGIH
Rank (after) [1]: 132 | Rank (before) [2]: 2331

Sequence: WFYERMVSLILRDTKL
Rank (after) [1]: 136 | Rank (before) [2]: 1262

Sequence: LKVERWRQALEKADKL
P3_MAL Rank (after) [3]: 215 | P3_MAL Rank (before) [4]: 2299

Sequence: NQWRNALTAAANLSGR
Population [7]: 0.00564%

Sequence: TFFSQQLNTVVHTAIL
P8_MAL Rank (after) [5]: 697 | P8_MAL Rank (before) [6]: 2542

Sequence: RNLVAYLLQALANKGI
Rank (after) [1]: 451 | Rank (before) [2]: 2244

Sequence: SFMLKFRTVLHHVHDV
P8_MAL Rank (after) [10]: 583 | P8_MAL Rank (before) [11]: 1451

Sequence: AFFWEQLKSVLGNPTM
Population [12]: 0.00371%

Sequence: SSFREGLRRMLELTKI
P3_MAL Rank (after) [13]: 515 | P3_MAL Rank (before) [14]: 3176

Sequence: RGFRSHLRQHLQAKDH
P3_MAL Rank (after) [5]: 772 | P3_MAL Rank (before) [6]: 2410

Sequence: WHFHLRLRMPDPLQKI
Rank (after) [8]: 432 | Rank (before) [9]: 1297

Sequence: YAFTSSLHRYLVQRGV
P3_MAL Rank (after) [10]: 592 | P3_MAL Rank (before) [11]: 1481

Sequence: LFFWGSLKQLLRNDGR
Rank (after) [1]: 128 | Rank (before) [2]: 2061

Sequence: YAFTRHLHRYLVQRAA
P3_MAL Rank (after) [13]: 553 | P3_MAL Rank (before) [14]: 1465

Sequence: RGFLSHLHRYLVQRGV
Rank (after) [8]: 109 | Rank (before) [9]: 250

The next lines start with the values.

Population [12]: 0.00371% and 0.0034%
Sequence: LFFCESLKQLLRSDGR

P3_MAL Rank (after) [10]: 604 | P3_MAL Rank (before) [11]: 3390
Sequence: NQWRNALTATANLSGL

P3_MAL Rank (after) [10]: 615 | P3_MAL Rank (before) [11]: 2367
Sequence: RGFLSHLRHPVHPKDH

Rank (after) [1]: 101 | Rank (before) [2]: 1862
Sequence: AFLYTFLIKLTHPPNF

P3_MAL Rank (after) [5]: 721 | P3_MAL Rank (before) [6]: 3468
Sequence: KHCWDRLCYMVNDSSR

P3_MAL Rank (after) [10]: 651 | P3_MAL Rank (before) [11]: 1227
Sequence: WFWVKLLYALTYRPGI

Population [7]: 0.00564%
Sequence: YAFTGHPHRYLVQRGV

Population [7]: 0.00488%
Sequence: SSFREGLWRLLELIKK

P3_MAL Rank (after) [13]: 546 | P3_MAL Rank (before) [14]: 1200
Sequence: FMSHLYRYLVQRGV

P3_MAL Rank (after) [13]: 573 | P3_MAL Rank (before) [14]: 1683
Sequence: VEPTQGRKQLGAVENA

Rank (after) [1]: 394 | Rank (before) [2]: 1150
Sequence: WFYELLVSLIVRDTKV

P8_MAL Rank (after) [5]: 713 | P8_MAL Rank (before) [6]: 1459
Sequence: YFLLFVLFGRSAIGSM

P8_MAL Rank (after) [3]: 195 | P8_MAL Rank (before) [4]: 869
Sequence: ARFKDMIINKWRTALT

Rank (after) [8]: 175 | Rank (before) [9]: 2692
Sequence: PNLRTNVMNYLMRTKT

Population [7]: 0.00338%
Sequence: YAFTGHLHRYLVQRGI

Rank (after) [8]: 467 | Rank (before) [9]: 1806
Sequence: AFSNNEYKCVETALMN

Population [12]: 0.00278%
Sequence: WFYERLVILILRDTKV

P8_MAL Rank (after) [13]: 482 | P8_MAL Rank (before) [14]: 1378
Sequence: WFMMKFRTVLDRVPEV

P8_MAL Rank (after) [10]: 655 | P8_MAL Rank (before) [11]: 1590
Sequence: AFFCTQLLNVLRKPTI

Rank (after) [8]: 466 | Rank (before) [9]: 3611
Sequence: KERPFGAQRAEKWRTALT

P8_MAL Rank (after) [13]: 504 | P8_MAL Rank (before) [14]: 1972
Sequence: DFLSHLIEAFSRMHIN

P3_MAL Rank (after) [13]: 549 | P3_MAL Rank (before) [14]: 2274
Sequence: LKVESWRQALEKAGT

P8_MAL Rank (after) [5]: 701 | P8_MAL Rank (before) [6]: 1441
Sequence: SFFDRLVSVILRDTNV

P3_MAL Rank (after) [5]: 690 | P3_MAL Rank (before) [6]: 2502
Sequence: RLLKWKEALHHVLQK

Rank (after) [8]: 144 | Rank (before) [9]: 508
Sequence: YAFTGHLHRYLCSVA

P8_MAL Rank (after) [13]: 526 | P8_MAL Rank (before) [14]: 2219
Sequence: RNFVAYLFKALANTGI

P8_MAL Rank (after) [5]: 709 | P8_MAL Rank (before) [6]: 1873
Sequence: AFLYTFLKNLPHPTNI

Rank (after) [8]: 182 | Rank (before) [9]: 2432
Sequence: RAFVADLDEALKQRAL

P8_MAL Rank (after) [13]: 487 | P8_MAL Rank (before) [14]: 1524
Sequence: YVLHFLLFSRREPEYI

P3_MAL Rank (after) [10]: 641 | P3_MAL Rank (before) [11]: 3329
Sequence: NQCSNALTGAAILSGW

P8_MAL Rank (after) [3]: 223 | P8_MAL Rank (before) [4]: 1830
Sequence: AFLYTFLLNLTHPTNL

P3_MAL Rank (after) [3]: 281 | P3_MAL Rank (before) [4]: 2398
Sequence: RGFLSHMRHPLQAKDH

P3_MAL Rank (after) [5]: 680 | P3_MAL Rank (before) [6]: 3140
Sequence: SSFREGLWRLLGLIKK

Population [12]: 0.00309%
Sequence: WFYERLVSLILRNTKV

P3_MAL Rank (after) [3]: 199 | P3_MAL Rank (before) [4]: 1440
Sequence: YAFTGHLNRSLVQRGV

P3_MAL Rank (after) [13]: 502 | P3_MAL Rank (before) [14]: 2612
Sequence: RNFMSHLYQGLKNRGIFTF

P8_MAL Rank (after) [13]: 564 | P8_MAL Rank (before) [14]: 2069
Sequence: LFFWDSLKQLLRSAGR

P3_MAL Rank (after) [13]: 507 | P3_MAL Rank (before) [14]: 2627
Sequence: RSFREGLWRLLELRKQ
